Assay results: ChEMBL document CHEMBL1147398, “New structures and bioactivity patterns of bengazole alkaloids from a choristid marine sponge” (1993)

What was measured:
[1] = test system: COLO 205; assay: Cytotoxicity against human COLO205 cells; type: functional
[2] = test system: SK-MEL-5; assay: Cytotoxicity against human SK-MEL-5 cells; type: functional
[3] = read-out: LC50 (the source's name)

SMILES: CCCCCCCCCCCCCC(=O)O[C@@H](c1cnco1)c1nc([C@@H](O)C[C@@H](O)[C@@H](O)[C@@H](C)O)co1 [BENGAZOLE A]
- GI50 [1]: 181 nM
- TGI [1]: 1500 nM
- CC50 [1, 3]: 5.25 µM
- GI50 [2]: 1130 nM
- TGI [2]: 4.83 µM
- CC50 [2, 3]: 4.83 µM
